Laboratory results published in US12673975B2, “Cyclic peptide, cell scaffold material, cell separating material, and medium” (FUJIFILM Corporation, priority 2019, dated 2026).
Like-named read-outs stand apart in the source and are kept apart here. Starred links: 1 amine or outer side, 2 acyl side, 3 side chain; linkers in the order of their positions; H or OH if unused. Positions of bridges follow the written chain, without caps; N, C: chain ends. Non-standard residues stand in square brackets, D forms with d. Residues, ends and D or L forms follow the SMILES beside them. Pen = CC(C)(S)[C@H](N)C(=O)O; hCys = N[C@@H](CCS)C(=O)O; Orn = NCCC[C@H](N)C(=O)O; Dab = NCC[C@H](N)C(=O)O; Dap = NC[C@H](N)C(=O)O; X1 = O=C(C[*:2])[*:1]; X2 = O=C(C[*:1])[*:2]

How the values were obtained:
human integrin αvβ5 = human integrin αvβ5 (Homo sapiens, UniProt P06756+P18084); assay: Evaluation of integrin binding property (surface plasmon resonance, Biacore 3000, immobilized cyclic peptide)
In short: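 SPR with cyclic peptide amine-coupled via EDC/NHS to a CM5 chip, blank channel as reference. Integrin αvβ5 at 30, 100, 300 and 1,000 nM injected 10 min at 25 °C in HEPES buffer pH 7.4 with 5 mM MgCl2, 30 min buffer flow, EDTA regeneration; Kd from reference-subtracted signals, graded by category.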

[1] = Evaluation of molecule stability (alkali treatment, residual rate by LC/MS); format: physicochemical; settings: for Performance evaluation: Stability (residual rate of cyclic peptide after alkali treatment): 500 μM peptide aqueous solution plus equivalent of 1 M sodium hydroxide, 15° C., 3 hours, LC/MS peak area; for Stability (molecule stability, residual rate of the cyclic peptide rank): alkali treatment, residual rate by LC/MS
In short: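 500 μM aqueous cyclic peptide mixed with an equal volume of 1 M NaOH and held 3 h at 15 °C. Residual rate is total LC/MS peak area after treatment relative to untreated (100%), using a C18 column, pH 3 ammonium formate/acetonitrile gradient, 45 °C, ESI±.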

[2] = SPR, 25° C., HEPES buffer with 5 mM magnesium chloride, integrin 30-1,000 nM, read-out: Performance evaluation: Binding activity (dissociation constant between the cyclic peptide and human integrin αvβ5)
[3] = surface plasmon resonance, immobilized cyclic peptide, human integrin αvβ5, read-out: Binding activity (integrin binding property, dissociation constant rank)

Chain of human integrin αvβ5 (P06756 31-1048): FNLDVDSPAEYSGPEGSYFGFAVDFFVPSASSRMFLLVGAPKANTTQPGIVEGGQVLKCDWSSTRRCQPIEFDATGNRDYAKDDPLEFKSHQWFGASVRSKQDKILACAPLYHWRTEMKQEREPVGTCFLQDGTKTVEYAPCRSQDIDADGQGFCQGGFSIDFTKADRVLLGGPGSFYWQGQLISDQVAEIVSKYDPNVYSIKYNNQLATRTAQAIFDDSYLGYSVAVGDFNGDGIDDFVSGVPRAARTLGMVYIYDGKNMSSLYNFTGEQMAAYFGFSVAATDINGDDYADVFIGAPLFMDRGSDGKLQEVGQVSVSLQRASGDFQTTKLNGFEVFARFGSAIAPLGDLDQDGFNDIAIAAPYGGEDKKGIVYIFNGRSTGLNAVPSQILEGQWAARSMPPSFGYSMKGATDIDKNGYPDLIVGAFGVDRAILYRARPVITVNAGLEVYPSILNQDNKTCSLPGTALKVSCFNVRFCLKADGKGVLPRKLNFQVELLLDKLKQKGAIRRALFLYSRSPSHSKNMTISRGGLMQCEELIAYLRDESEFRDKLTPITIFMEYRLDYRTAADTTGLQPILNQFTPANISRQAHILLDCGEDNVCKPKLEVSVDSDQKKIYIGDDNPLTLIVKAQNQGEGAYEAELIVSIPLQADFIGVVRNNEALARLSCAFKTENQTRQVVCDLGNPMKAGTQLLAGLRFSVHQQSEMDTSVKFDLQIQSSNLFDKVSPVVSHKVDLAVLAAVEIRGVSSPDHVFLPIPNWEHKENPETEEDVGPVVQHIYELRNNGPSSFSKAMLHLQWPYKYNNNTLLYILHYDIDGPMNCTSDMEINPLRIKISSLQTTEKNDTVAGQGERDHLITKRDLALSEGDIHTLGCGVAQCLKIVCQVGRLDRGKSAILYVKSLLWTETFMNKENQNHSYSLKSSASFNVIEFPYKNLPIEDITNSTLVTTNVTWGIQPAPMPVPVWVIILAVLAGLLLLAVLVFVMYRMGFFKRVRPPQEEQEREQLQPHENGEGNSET
Chain of human integrin αvβ5 (P18084 24-799): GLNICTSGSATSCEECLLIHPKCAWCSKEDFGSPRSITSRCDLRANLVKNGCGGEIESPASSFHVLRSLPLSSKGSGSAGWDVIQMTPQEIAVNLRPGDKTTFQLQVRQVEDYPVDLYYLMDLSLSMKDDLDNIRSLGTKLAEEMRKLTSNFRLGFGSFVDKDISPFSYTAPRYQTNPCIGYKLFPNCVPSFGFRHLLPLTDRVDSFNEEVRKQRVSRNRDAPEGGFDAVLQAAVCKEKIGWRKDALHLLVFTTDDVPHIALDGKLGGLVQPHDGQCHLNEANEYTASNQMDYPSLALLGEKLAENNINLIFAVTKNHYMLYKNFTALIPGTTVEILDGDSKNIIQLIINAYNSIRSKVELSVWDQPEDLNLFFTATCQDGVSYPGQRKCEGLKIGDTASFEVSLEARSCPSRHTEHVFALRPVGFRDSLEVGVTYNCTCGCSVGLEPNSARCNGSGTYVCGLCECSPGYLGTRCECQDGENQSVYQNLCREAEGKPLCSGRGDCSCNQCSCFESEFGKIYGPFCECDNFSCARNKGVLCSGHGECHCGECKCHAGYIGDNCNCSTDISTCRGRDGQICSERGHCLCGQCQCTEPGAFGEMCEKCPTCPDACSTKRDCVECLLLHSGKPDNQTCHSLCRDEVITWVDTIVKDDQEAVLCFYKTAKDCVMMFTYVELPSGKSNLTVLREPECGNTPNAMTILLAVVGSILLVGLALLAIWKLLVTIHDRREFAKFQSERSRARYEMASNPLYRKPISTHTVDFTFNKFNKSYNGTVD

| SMILES | Kd (human integrin αvβ5; [2]) [nM] | Kd (human integrin αvβ5; [3]) [nM] | Performance evaluation: Stability (residual rate of cyclic peptide after alkali treatment) [1] | Stability (molecule stability, residual rate of the cyclic peptide rank) [1] |
| --- | --- | --- | --- | --- |
| C[C@H](NC(=O)[C@@H]1CCNC(=O)CSCC[C@H](NC(=O)[C@H](CCCCN)NC(=O)[C@H](CCCCN)NC(=O)[C@@H](N)CCCCN)C(=O)N[C@@H](CCC(=O)O)C(=O)N2CCC[C@H]2C(=O)N[C@@H](CCCNC(=N)N)C(=O)NCC(=O)N[C@@H](CC(=O)O)C(=O)N[C@@H](CC(N)=O)C(=O)N[C@@H](Cc2ccccc2)C(=O)N[C@@H](CCCNC(=N)N)C(=O)N1)C(=O)O [Cyclic peptide 23, KKK-(Hcy)-EPRGDNFR(Dab(acetyl))A] (H-KKK[hCys]EPRGDNFR[Dab]A-OH; linker 4-13 via X2) | < 50 | – | A (The residual rate of the cyclic peptide is 70% or more.) | – |
| CC[C@H](C)[C@@H]1NC(=O)[C@@H](NC(=O)CNC(=O)[C@H](CCCCN)NC(=O)[C@H](CCCCN)NC(=O)[C@@H](N)CCCCN)CNC(=O)CSCC[C@@H](C(=O)N[C@@H](C)C(=O)O)NC(=O)[C@H](CCCNC(=N)N)NC(=O)[C@H](Cc2ccccc2)NC(=O)[C@H]([C@@H](C)O)NC(=O)[C@H](CC(=O)O)NC(=O)CNC(=O)[C@H](CCCNC(=N)N)NC(=O)[C@@H]2CCCN2C1=O [Cyclic peptide 117, KKKG(Dap(acetyl))IPRGDTFR-(Hcy)-A] (H-KKKG[Dap]IPRGDTFR[hCys]A-OH; linker 5-14 via X1) | – | < 50 | – | B (The residual rate of the cyclic peptide is 50% or more and less than 70%.) |
| C[C@H](NC(=O)[C@@H]1CCNC(=O)CSCC[C@H](NC(=O)[C@H](CCCCN)NC(=O)[C@H](CCCCN)NC(=O)[C@@H](N)CCCCN)C(=O)N[C@@H]([C@@H](C)O)C(=O)N2CCC[C@H]2C(=O)N[C@@H](CCCNC(=N)N)C(=O)NCC(=O)N[C@@H](CC(=O)O)C(=O)N[C@@H]([C@@H](C)O)C(=O)N[C@@H](Cc2ccccc2)C(=O)N[C@@H](C)C(=O)N1)C(=O)O [Cyclic peptide 159, KKK-(Hcy)-TPRGDTFA(Dab(acetyl))A] (H-KKK[hCys]TPRGDTFA[Dab]A-OH; linker 4-13 via X2) | – | < 50 | – | A (The residual rate of the cyclic peptide is 70% or more.) |
| CC[C@H](C)[C@@H]1NC(=O)[C@@H](NC(=O)CNC(=O)[C@H](CCCCN)NC(=O)[C@H](CCCCN)NC(=O)[C@@H](N)CCCCN)C(C)(C)SCC(=O)NCCC[C@@H](C(=O)N[C@@H](C)C(=O)O)NC(=O)[C@H](CCCNC(=N)N)NC(=O)[C@H](Cc2ccccc2)NC(=O)[C@H]([C@@H](C)O)NC(=O)[C@H](CC(=O)O)NC(=O)CNC(=O)[C@H](CCCNC(=N)N)NC(=O)[C@@H]2CCCN2C1=O [Cyclic peptide 130, KKKG-(Pen)-IPRGDTFR(Orn(acetyl))A] (H-KKKG[Pen]IPRGDTFR[Orn]A-OH; linker 5-14 via X2) | – | < 50 | – | A (The residual rate of the cyclic peptide is 70% or more.) |
| CC[C@H](C)[C@@H]1NC(=O)[C@@H](NC(=O)[C@H](CCCCN)NC(=O)[C@H](CCCCN)NC(=O)[C@@H](N)CCCCN)CCSCC(=O)NCC[C@@H](C(=O)O)NC(=O)[C@H](C)NC(=O)[C@H](Cc2ccccc2)NC(=O)[C@H](CO)NC(=O)[C@H](CC(=O)O)NC(=O)CNC(=O)[C@H](CCCNC(=N)N)NC(=O)[C@@H]2CCCN2C1=O [Cyclic peptide 101, KKK-(Hcy)-IPRGDSFA(Dab(acetyl))] (H-KKK[hCys]IPRGDSFA[Dab]-OH; linker 4-13 via X2) | – | < 50 | – | A (The residual rate of the cyclic peptide is 70% or more.) |

More lines, main results first:

| Kd (human integrin αvβ5; [2]) [nM] | Kd (human integrin αvβ5; [3]) [nM] | SMILES | Performance evaluation: Stability (residual rate of cyclic peptide after alkali treatment) [1] | Stability (molecule stability, residual rate of the cyclic peptide rank) [1] |
| --- | --- | --- | --- | --- |
| < 50 | – | CC[C@H](C)[C@@H]1NC(=O)[C@@H](NC(=O)[C@H](C)NC(=O)[C@H](CCCCN)NC(=O)[C@H](CCCCN)NC(=O)[C@@H](N)CCCCN)CCSCC(=O)NCC[C@@H](C(=O)N[C@@H](C)C(=O)O)NC(=O)[C@H](CCCNC(=N)N)NC(=O)[C@H](Cc2ccccc2)NC(=O)[C@H](C(C)C)NC(=O)[C@H](CC(=O)O)NC(=O)CNC(=O)[C@H](CCCNC(=N)N)NC(=O)[C@@H]2CCCN2C1=O [Cyclic peptide 78, KKKA-(Hcy)-IPRGDVFR(Dab(acetyl))A] (H-KKKA[hCys]IPRGDVFR[Dab]A-OH; linker 5-14 via X2) | A (The residual rate of the cyclic peptide is 70% or more.) | – |
| < 50 | – | CC[C@H](C)[C@@H]1NC(=O)[C@@H](NC(=O)[C@H](CCCCN)NC(=O)[C@H](CCCCN)NC(=O)[C@@H](N)CCCCN)CCSCC(=O)NCC[C@@H](C(=O)O)NC(=O)[C@H](CCCNC(=N)N)NC(=O)[C@H](Cc2ccccc2)NC(=O)[C@H]([C@@H](C)O)NC(=O)[C@H](CC(=O)O)NC(=O)CNC(=O)[C@H](CCCNC(=N)N)NC(=O)[C@@H]2CCCN2C1=O [Cyclic peptide 61, KKK-(Hcy)-IPRGDTFR(Dab(acetyl))] (H-KKK[hCys]IPRGDTFR[Dab]-OH; linker 4-13 via X2) | A (The residual rate of the cyclic peptide is 70% or more.) | – |
| 50 to 100 | – | CC[C@H](C)[C@@H]1NC(=O)[C@H](C)NC(=O)[C@@H](NC(=O)[C@H](CCCCN)NC(=O)[C@H](CCCCN)NC(=O)[C@@H](N)CCCCN)CCSCC(=O)NCC[C@@H](C(=O)N[C@@H](C)C(=O)O)NC(=O)[C@H](C)NC(=O)[C@H](CCCNC(=N)N)NC(=O)[C@H](Cc2ccccc2)NC(=O)[C@H](CC(N)=O)NC(=O)[C@H](CC(=O)O)NC(=O)CNC(=O)[C@H](CCCNC(=N)N)NC(=O)[C@@H]2CCCN2C1=O [Cyclic peptide 17, KKK-(Hcy)-AIPRGDNFRA(Dab(acetyl))A] (H-KKK[hCys]AIPRGDNFRA[Dab]A-OH; linker 4-15 via X2) | A (The residual rate of the cyclic peptide is 70% or more.) | – |
| 50 to 100 | – | CC[C@H](C)[C@@H]1NC(=O)[C@@H](NC(=O)[C@H](CCCCN)NC(=O)[C@H](CCCCN)NC(=O)[C@@H](N)CCCCN)CCSCC(=O)NCC[C@@H](C(=O)N[C@@H](C)C(=O)O)NC(=O)[C@H](CCCNC(=N)N)NC(=O)[C@H](Cc2ccc(O)cc2)NC(=O)[C@H](CC(N)=O)NC(=O)[C@H](CC(=O)O)NC(=O)CNC(=O)[C@H](CCCNC(=N)N)NC(=O)[C@@H]2CCCN2C1=O [Cyclic peptide 26, KKK-(Hcy)-IPRGDNYR(Dab(acetyl))A] (H-KKK[hCys]IPRGDNYR[Dab]A-OH; linker 4-13 via X2) | A (The residual rate of the cyclic peptide is 70% or more.) | – |
| < 50 | – | CC[C@H](C)[C@@H]1NC(=O)[C@@H](NC(=O)CNC(=O)[C@H](CCCCN)NC(=O)[C@H](CCCCN)NC(=O)[C@@H](N)CCCCN)CCSCC(=O)NCC[C@@H](C(=O)N[C@@H](C)C(=O)O)NC(=O)[C@H](C)NC(=O)[C@H](Cc2ccccc2)NC(=O)[C@H]([C@@H](C)O)NC(=O)[C@H](CC(=O)O)NC(=O)CNC(=O)[C@H](CCCNC(=N)N)NC(=O)[C@@H]2CCCN2C1=O [Cyclic peptide 86, KKKG-(Hcy)-IPRGDTFA(Dab(acetyl))A] (H-KKKG[hCys]IPRGDTFA[Dab]A-OH; linker 5-14 via X2) | A (The residual rate of the cyclic peptide is 70% or more.) | – |
| < 50 | – | CC[C@H](C)[C@@H]1NC(=O)[C@@H](NC(=O)[C@H](C)NC(=O)[C@H](CCCCN)NC(=O)[C@H](CCCCN)NC(=O)[C@@H](N)CCCCN)CCSCC(=O)NCC[C@@H](C(=O)N[C@@H](C)C(=O)O)NC(=O)[C@H](C)NC(=O)[C@H](Cc2ccccc2)NC(=O)[C@H]([C@@H](C)O)NC(=O)[C@H](CC(=O)O)NC(=O)CNC(=O)[C@H](CCCNC(=N)N)NC(=O)[C@@H]2CCCN2C1=O [Cyclic peptide 87, KKKA-(Hcy)-IPRGDTFA(Dab(acetyl))A] (H-KKKA[hCys]IPRGDTFA[Dab]A-OH; linker 5-14 via X2) | A (The residual rate of the cyclic peptide is 70% or more.) | – |
| – | < 50 | CC[C@H](C)[C@@H]1NC(=O)[C@@H](NC(=O)[C@H](C)NC(=O)[C@H](CCCCN)NC(=O)[C@H](CCCCN)NC(=O)[C@@H](N)CCCCN)CCSCC(=O)NCC[C@@H](C(=O)O)NC(=O)[C@H](C)NC(=O)[C@H](Cc2ccccc2)NC(=O)[C@H](CO)NC(=O)[C@H](CC(=O)O)NC(=O)CNC(=O)[C@H](CCCNC(=N)N)NC(=O)[C@@H]2CCCN2C1=O [Cyclic peptide 162, KKKA-(Hcy)-IPRGDSFA(Dab(acetyl))] (H-KKKA[hCys]IPRGDSFA[Dab]-OH; linker 5-14 via X2) | – | A (The residual rate of the cyclic peptide is 70% or more.) |
| – | < 50 | CC(C)[C@@H]1NC(=O)[C@@H](NC(=O)[C@H](C)NC(=O)[C@H](CCCCN)NC(=O)[C@H](CCCCN)NC(=O)[C@@H](N)CCCCN)CCSCC(=O)NCC[C@@H](C(=O)O)NC(=O)[C@H](C)NC(=O)[C@H](Cc2ccccc2)NC(=O)[C@H]([C@@H](C)O)NC(=O)[C@H](CC(=O)O)NC(=O)CNC(=O)[C@H](CCCNC(=N)N)NC(=O)[C@@H]2CCCN2C1=O [Cyclic peptide 164, KKKA-(Hcy)-VPRGDTFA(Dab(acetyl))] (H-KKKA[hCys]VPRGDTFA[Dab]-OH; linker 5-14 via X2) | – | A (The residual rate of the cyclic peptide is 70% or more.) |
